According to patent US20110263539A1, “SHIP 1 MODULATOR COMPOUNDS” (THE UNIVERSITY OF BRITISH COLUMBIA, priority 2006, published 2011):

How the values were obtained:
J774.1a macrophage cells = experiment: Macrophage TNF-α production (Assay 2); format: cell-based; details: 10 μg/mL test compound, 100 ng/mL LPS, ELISA; also: key: a ‘+’ indicates a positive result for desired activity; a ‘−’ indicates a negative result for desired activity
Procedure: Assay 2) Macrophage TNF-α production. J774.1a macrophage cells were treated with 10 μg/mL of test compound dissolved in solvent (e.g. cyclodextran) for 40 minutes prior to the addition of 100 ng/mL LPS. Culture supernatants were collected after 2 hr and 5 hr for TNF-α determination by ELISA.

SHIP C2 domain = experiment: Protein lipid overlay assay; format: binding; details: 4 μM Compound 100
Procedure: Protein lipid overlay (PLO) assays were performed essentially as described with minor modifications. Lyophilized phosphatidylinositol-3,4-bisphosphate diC16 (PIP2, Echelon Biosciences, Salt Lake City, Utah) was reconstituted in a 2:1.8 solution of methanol and water. PVDF membranes (Millipore, Missisauga, Ont) were initially wetted in methanol for 1 minute, and washed 3×5 min with water, and gently agitated in TBST buffer (20 mM Tris pH 7.5, 0.15 M NaCl (TBS) with 0.05% Tween 20) at 23° C. overnight. Treated membranes were air-dried and dilutions of reconstituted lipids were spotted in 1 μl aliquots to give the indicated amount of PIP2 per membrane spot. Membranes were dried completely and blocked with blocking buffer (3% BSA in TBS with 0.05% NaN3) for 1 h at 23° C. Purified, recombinant C2 domain was diluted into blocking buffer (5 μM final) and treated with 4 μM Compound 100 or EtOH control for 30 min at 23° C. prior to overnight incubation with the PIP2 spotted membranes. […] After washing, bound proteins were detected and quantified on a Li-Cor Odyssey scanner (Lincoln, Nebr.).
Isolated recombinant, His6-tagged C2 domain was expressed and its PI-3,4-P2 binding ability was determined using protein lipid overlay assays. Purified C2 domain was incubated with membrane strips spotted with PI-3,4-P2 and bound protein detected using an anti-His6 antibody. […]

[1] = system: neutrophil myeloperoxidase (MPO) activity; experiment: Mouse acute cutaneous anaphylaxis model (Assay 5); format: in vivo, CD1 mice
Procedure: Assay 5) Mouse acute cutaneous anaphylaxis model. 6-8 week old CD1 mice
(§1) (University of British Columbia Animal Facility, Vancouver, BC) were sensitized to the hapten DNP by cutaneous application of 25 μL of 0.5% dinitrofluorobenzene (DNFB) (Sigma, Oakville, Ont) in acetone to the shaved abdomen of mice for two consecutive days. 24 hrs later, test substances (dissolved in 10 μL of 1:2 DMSO:MeOH) were painted on the right ear while the left ear received vehicle control. 30 min after drug application, DNFB was applied to both ears to induce mast cell degranulation. A 6 mm punch was taken from the ear and immediately frozen on dry ice for subsequent determination of neutrophil myeloperoxidase (MPO) activity.
as §1, with “Mouse acute cutaneous anaphylaxis model. 6-8 week old CD1 mice (University” for “(University”, “activity. Compound 100's ability to inhibit cutaneous anaphylaxis was assessed.” for “activity.”
Anaphylactic or allergic responses are mediated by allergen-induced degranulation of pre-sensitized mast cells. The mouse ear edema/cutaneous anaphylaxis model involves pre-sensitization of mice with the haptenizing agent dinitrofluorobenzene (DNFB). One week later the allergic reaction is elicited by painting DNFB onto the ears of the mice. The efficacy of potential anti-inflammatory compounds is tested by topical application of the test substance to one ear and comparing the resulting ear edema or inflammation of the two ears.

Structure (SMILES): Cc1cc(O)cc2c1[C@]1(C)CCC3C(C)(C)CCC[C@]3(C)[C@H]1C2 (stereo partly shown) [Compound 100]
- Assay Number 2: Macrophage TNF-α production (J774.1a macrophage cells): +
- binding of C2 domain to PI-3,4-P2 (SHIP C2 domain): inhibited
- Assay Number 5: Mouse acute cutaneous anaphylaxis model ([1]; topical on ear, DNFB): +
- allergen (DNFB)-induced inflammation ([1]; topically applied vs vehicle control-treated ear): dramatically inhibited
